Here are results for three molecules from ChEMBL document CHEMBL3108727, “Lupane triterpenoids from the stems of Euonymus carnosus” (J Nat Prod, 2014).

The nature of series [1]: Cytotoxicity against human HCT8 cells after 96 hrs by MTT assay. The format is functional, cell-based. Particulars: HCT-8, 96 h.
The subject of the next series is A549. Nature of the series: Cytotoxicity against human A549 cells after 96 hrs by MTT assay. Particulars: A549, 96 h. It is filed as functional, cell-based.
The nature of series [2]: Antiinflammatory activity in mouse BV2 cells assessed as inhibition of LPS-induced nitric oxide production after 24 hrs by Griess method. The following applies: BV-2, 24 h. It is filed as functional, cell-based.
Series [3] can be described thus: Cytotoxicity against human BGC823 cells after 96 hrs by MTT assay. It is filed as functional, cell-based. The following applies: BGC-823, 96 h.
Series [4] in a line: Cytotoxicity against mouse BV2 cells assessed as cell viability by MTT assay relative to LPS-treated control. It is filed as cell-based, BV-2. Set-up: concentration or dose not given beside the values. Particulars: read-out: Activity.
A further series concerns A2780. Nature of the series: Cytotoxicity against human A2780 cells after 96 hrs by MTT assay. It is filed as functional, cell-based. Particulars: A2780, 96 h.
Series [5] can be described thus: Cytotoxicity against human Bel7402 cells after 96 hrs by MTT assay. The format is functional, cell-based. The following applies: Bel-7402, 96 h.

Regarding `C[C@H](C(=O)O)[C@@H]1CC[C@]2(C)CC[C@]3(C)[C@H](CC[C@@H]4[C@@]5(C)CC[C@@H](O)C(C)(C)[C@@H]5CC[C@]43C)[C@@H]12`, the half-maximal inhibitory concentration (IC50) was > 10 µM in series [1]; > 10 µM with A549; 7.39 µM in series [2]; > 10 µM in series [3]; > 10 µM in the series with A2780; > 10 µM in series [5]. Further, the viability in series [4] is 87.3%.

Consider `CC(=O)O[C@@H]1CC[C@]2(C)[C@H]3CC[C@@H]4[C@H]5[C@H]([C@H](C)C(=O)O)CC[C@]5(C)CC[C@@]4(C)[C@]3(C)CC[C@H]2C1(C)C`, for which the half-maximal inhibitory concentration (IC50) in series [1] is > 10 µM; in the series with A549, > 10 µM; in series [2], 7.48 µM; in series [3], > 10 µM; in the series on A2780, > 10 µM; in series [5], > 10 µM. In addition, the viability in series [4] was 98.5%.

Turning to `C=C(C)[C@@H]1CC[C@]2(CO)CC[C@]3(C)[C@H](CC[C@@H]4[C@@]5(C)CC[C@@H](O)C(C)(C)[C@@H]5CC[C@]43C)[C@@H]12` [3-EPI-BETULIN], the IC50 in series [1] is > 10 µM; in the series on A549, > 10 µM; in series [2] it was 2.54 µM; in series [3], > 10 µM; with A2780, > 10 µM; in series [5], > 10 µM. Also, in series [4], the viability is 89.3%.
